Results reported in patent US9121040B2, “Process for rapid anaerobic digestion of biomass using microbes and the production of biofuels therefrom” (priority 2006, dated 2015).
Read-outs that look alike come from different tables or passages of the source. Marks after values point to notes of the source that are not given here.

Test system: ruminal microorganisms
Assay: Effect of sulfur reducing agents on gas, volatile fatty acid and alcohol production, timothy hay with ruminal microorganisms (Example 7)
Type: cell-based, mixed rumen microorganisms from cows
Details: for H2 (% of all gases): 0.32 mmol/flask agent, timothy hay, mean of initial gas CO2 or N2 without added H2; for H2 (% of fermentation gas): molar percentage among gases excluding N2; for NDF remaining (% of DM): neutral detergent fiber after 24 h
Protocol: Initial in vitro experiments used timothy grass hay as substrate. For each digestion experiment, we obtained one-half liter of rumen contents from each of two ruminally-cannulated cows two to four hours after morning feeding. The digesta were mixed and ground in a Waring blender for 1 minute while being maintained under CO2 gas. Fluid was strained through four layers of cheese cloth followed by glass wool to remove large particles. Rumen fluid was added to a bicarbonate or 0.1 M sodium phosphate buffer with mineral salts.
Gas samples were collected continuously in mylar balloons, and gas volumes recorded at various time points. Glass tubing coated with epoxy was pushed into the opening on the mylar balloons. The tubing was connected to luer-lock connectors via nylon tubing. Samples were taken using glass syringes attached to the luer-lock connectors. Samples were stored in gas-tight vials for analysis of composition by GC with thermal conductivity detector. Rates of gas production were determined by fitting an inverted exponential equation.
The pH and reducing potential were determined using standard glass or platinum electrodes respectively, while maintaining the gas composition by keeping the flasks closed to the atmosphere with putty fitted around the electrodes. Liquid samples were collected at designated time points and analyzed by gas chromatography (GC) for alcohols (methanol, ethanol, propanol, butanol) volatile fatty acids (acetate, propionate, butyrate, etc). Rates of alcohol or VFA production were determined by fitting an inverted exponential equation.
True fiber digestibility was determined directly on the residue of digestion by refluxing in pH-neutral detergent solution for one hour, drying at 100° C. overnight and weighing.
An experiment was conducted to determine the effect of adding sulfur reducing agents on production of gases, volatile fatty acids, and alcohols. Twenty treatments were arranged in a 2×2×5 factorial design with factors of initial headspace gas (CO2 or N2), addition of 25 ml H2 gas to the initial headspace (+H2, —H2), or one of five sources of sulfur redox agents (0.32 mmol/flask): Na2SO4, Na2SO3, S^0, Na2S, or none. Samples (0.5 g timothy hay) were incubated for 24 hours and products measured as previously. At the start of the incubation, each 125-ml flask was perfused with respective gas. For treatments receiving added H2, 25 ml of perfused gas (at 1 atm pressure) was removed from the flask headspace and forced into the collection balloon. This removed gas was replaced with H2.

[1] = 24 h, mean of CO2 or N2 without added H2
[2] = mean of CO2 or N2 without added H2

Row | Structure (SMILES) | H2 (% of all gases) (24 h) | 1-propanol [1] | 2Acet + 2Butyr − Propionate (estimated production of H2 equivalent from fermentation of sugar to VFA) [1] | Acetate [1] | Acetate:Butyrate, mole ratio [1] | Acetate:Propion, mole ratio [1] | Butyrate [1] | CH4 (% of all gases) [1] | CH4 (% of fermentation gas) [1] | CH4:CO2 (molar ratio) [1] | CH4:H2 (molar conc. ratio) [1] | CH4 production [1] | CO2 (% of all gases) [1] | CO2 (% of fermentation gas) [1] | CO2 production [1] | Ethanol [1] | H2 equivalent (H2 + 4 CH4) [1] | H2 production [1] | Isobutyrate [1] | Isovalerate [1] | other results
1 | [S] [S^0] | 0.080^b % | 0 µmol | 2840^a μmol | 550^a μmol | 7.57^a | 2.72 | 198^a μmol | 4.61^a % | 13.8^a % | 0.171^a | 79^a | 334^a μmol | 50.5^a % | 86.0^b % | 1795^ab μmol | 0 µmol | 1340^a | 5.9^b μmol | 12.2^a μmol | 13.3^ab μmol | Eh: −249^abc; Propionate [1]: 550^a μmol; Total VFA [1]: 2287^a μmol; VFA-C [1]: 5634^a μmol; pH [1]: 6.43^b; valerate [1]: 17.1^b μmol; H2 (% of fermentation gas) [1]: 0.22^b %; NDF remaining (% of DM) [2]: 36.5^b % of DM
2 | O=S([O-])[O-].[Na+].[Na+] [SO3, Na2SO3] | 1.39^a % | 5.4^6 μmol | 1483^b μmol | 293^b μmol | 4.89^b | 2.52 | 152^b μmol | 0.12^b % | 0.82^b % | 0.010^b | 0.1^b | 6.6^b μmol | 47.9^ab % | 92.0^a % | 1002^b μmol | 25.8^5 μmol | 103^b | 76.6^a μmol | 9.8^b μmol | 12.3^b μmol | Eh: −264^bc; Propionate [1]: 293^b μmol; Total VFA [1]: 1206^b μmol; VFA-C [1]: 3071^b μmol; pH [1]: 6.72^a; valerate [1]: 2.33^c μmol; Methane production (H2 added at the beginning): ≤ 5 µmol; effect on methane production (each gas composition): strongly inhibited; H2 (% of fermentation gas) [1]: 8.18^a %; NDF remaining (% of DM) [2]: 57.2^a % of DM; valerate (starting with CO2, H2 added): 2.3 µmol; valerate (starting with CO2, H2 not added): 3.0 µmol; valerate (starting with N2, H2 added): 8.3 µmol; valerate (starting with N2, H2 not added): 1.7 µmol; hydrogen production (when H2 was added to initial headspace): -179 µmol
3 | [Na+].[Na+].[S-2] [Na2S] | 0.078^b % | 0 µmol | 2660^a μmol | 541^a μmol | 6.91^a | 2.59 | 202^a μmol | 5.04^a % | 14.3^a % | 0.183^a | 69^a | 335^a μmol | 42.9^b % | 85.5^b % | 1773^ab μmol | 0 µmol | 1344^a | 5.2^b μmol | 13.5^a μmol | 14.7^a μmol | Eh [1]: −269^c; Propionate [1]: 541^a μmol; Total VFA [1]: 2190^a μmol; VFA-C [1]: 5455^a μmol; pH [1]: 6.47^b; valerate [1]: 19.5^a μmol; H2 (% of fermentation gas) [1]: 0.24^b %; NDF remaining (% of DM) [2]: 35.7^b % of DM
4 | O=S(=O)([O-])[O-].[Na+].[Na+] [SO4, Na2SO4] | 0.073^b % | 0 µmol | 2628^a μmol | 538^a μmol | 7.00^a | 2.57 | 198^a μmol | 5.02^a % | 14.4^a % | 0.182^a | 85^a | 363^a μmol | 52.1^a % | 85.4^b % | 2298^ab μmol | 0 µmol | 1459^a | 5.0^b μmol | 12.0^a μmol | 13.0^ab μmol | Eh: −247^ab; Propionate [1]: 538^a μmol; Total VFA [1]: 2162^a μmol; VFA-C [1]: 5370^a μmol; pH [1]: 6.45^b; valerate [1]: 16.7^b μmol; H2 (% of fermentation gas) [1]: 0.24^b %; NDF remaining (% of DM) [2]: 36.0^b % of DM
